Data: patent US9981976B2, “Piperidine substituted pyrazolo[1,5-A]pyrimidine derivatives with inhibitory activity on the replication of the respiratory syncytial virus (RSV)” (priority 2014, dated 2018)

Experiments:
rgRSV224 virus = experiment: microbe, parasite or virus in culture; format: cell-based, respiratory syncytial virus (RSV); conditions: for EC50: human respiratory syncytial virus, HeLa, 72 h, read-out: RSV HELA pEC50, rgRSV224 virus (MOI=1), HeLa cells, GFP expression three days post-virus exposure (converted); for RSV HELA pEC50: rgRSV224 virus (MOI=1), HeLa cells, GFP expression three days post-virus exposure
HeLa cells = experiment: Cytotoxicity in HeLa cells, ATP content (ATPlite kit); conditions: three days incubation, CC50 = 50% concentration for cytotoxicity
Description: Black 384-well clear-bottom microtiter plates (Corning, Amsterdam, The Netherlands) were filled via acoustic drop ejection using the echo liquid handler (Labcyte, Sunnyvale, Calif.). 200 nL of compound stock solutions (100% DMSO) were transferred to the assay plates. 9 serial 4-fold dilutions of compound were made, creating per quadrant the same compound concentration. The assay was initiated by adding 10 μL of culture medium to each well (RPMI medium without phenol red, 10% FBS-heat inactivated, 0.04% gentamycin (50 mg/mL). All addition steps are done by using a multidrop dispenser (Thermo Scientific, Erembodegem, Belgium). Next, rgRSV224 virus (MOI=1) diluted in culture medium was added to the plates. rgRSV224 virus is an engineered virus that includes an additional GFP gene (Hallak L K, Spillmann D, Collins P L, Peeples M E. Glycosaminoglycan sulfation requirements for respiratory syncytial virus infection; Journal of virology (2000), 74(22), 10508-13) and was in-licensed from the NIH (Bethesda, Md., USA). Finally, 20 μL of a HeLa cell suspension (3,000 cells/well) were plated. Medium, virus- and mock-infected controls were included in each test. The wells contain 0.05% DMSO per volume. Cells were incubated at 37° C. in a 5% CO2 atmosphere. Three days post-virus exposure, viral replication was quantified by measuring GFP expression in the cells by an in house developed MSM laser microscope (Tibotec, Beerse, Belgium). The EC50 was defined as the 50% inhibitory concentration for GFP expression. In parallel, compounds were incubated for three days in a set of white 384-well microtiter plates (Corning) and the cytotoxicity of compounds in HeLa cells was determined by measuring the ATP content of the cells using the ATPlite kit (Perkin Elmer, Zaventem, Belgium) according to the manufacturer's instructions. The CC50 was defined as the 50% concentration for cytotoxicity.

| SMILES | EC50 (rgRSV224 virus) [nM] | SI TOX HELA (HeLa cells) | RSV HELA pEC50 (rgRSV224 virus) |
| --- | --- | --- | --- |
| Cc1ccc2nc(NS(C)(=O)=O)nc(N3CCCC[C@@H]3c3cc4nc(N5CCC5)cc(N5CCOCC5)n4n3)c2c1 [P7, (R)—N-(4-(2-(5-(azetidin-1-yl)-7-morpholinopyrazolo[1,5-a]pyrimidin-2-yl)-piperidin-1-yl)-6-methylquinazolin-2-yl)methanesulfonamide] | 2000 | <4 |  |
| Cc1cccc2nc(C(=O)O)nc(N3CCCCC3c3cc4nc(N5CCC5)cc(N5CCOCC5)n4n3)c12 (centres unmarked) [P68, 4-(2-(5-(azetidin-1-yl)-7-morpholinopyrazolo[1,5-a]pyrimidin-2-yl)-piperidin-1-yl)-5-methylquinazoline-2-carboxylic acid] | 316 | <4.6 |  |
| Cc1ccc2nc(NS(C)(=O)=O)nc(N3CCCC[C@H]3c3cc4nc(N5CCC5)cc(N5CCOCC5)n4n3)c2c1 [P8, (S)—N-(4-(2-(5-(azetidin-1-yl)-7-morpholinopyrazolo[1,5-a]pyrimidin-2-yl)piperidin-1-yl)-6-methylquinazolin-2-yl)methanesulfonamide] | 7.94 | <4 |  |
| Cc1ccc2nc(NS(C)(=O)=O)nc(N3CCCCC3c3cc4nc(N5CCC5)cc(N5CCOCC5)n4n3)c2c1 (centres unmarked) [P6, N-(4-(2-(5-(azetidin-1-yl)-7-morpholinopyrazolo[1,5-a]pyrimidin-2-yl)piperidin-1-yl)-6-methylquinazolin-2-yl)methanesulfonamide] | 5.01 | <4.0 |  |
| Cc1nc2c(N3CCCCC3c3cc4nc(N5CCC5)cc(N5CCOCC5)n4n3)ncnc2o1 (centres unmarked) [P65, 7-(2-(5-(azetidin-1-yl)-7-morpholinopyrazolo[1,5-a]pyrimidin-2-yl)-piperidin-1-yl)-2-methyloxazolo[5,4-d]pyrimidine] | 15.8 | <4.6 |  |
| COCCOC(=O)Nc1nc(N2CCCCC2c2cc3nc(N4CCC4)cc(N4CCOCC4)n3n2)c2cc(N3CCOCC3)ccc2n1 (centres unmarked) [P14, 2-methoxyethyl 4-(2-(5-(azetidin-1-yl)-7-morpholinopyrazolo[1,5-a]-pyrimidin-2-yl)piperidin-1-yl)-6-morpholinoquinazolin-2-ylcarbamate] | 794 | <4 |  |
| Cc1ccc(C)c2c(N3CCCCC3c3cc4nc(N5CCC5)cc(N5CCOCC5)n4n3)ncnc12 (centres unmarked) [P66, 4-(5-(azetidin-1-yl)-2-(1-(5,8-dimethylquinazolin-4-yl)piperidin-2-yl)-pyrazolo[1,5-a]pyrimidin-7-yl)morpholine] | 100 |  |  |
| Cc1cccc2nc(C(=N)NO)nc(N3CCCCC3c3cc4nc(N5CCC5)cc(N5CCOCC5)n4n3)c12 (centres unmarked) [P30, 4-(2-(5-(azetidin-1-yl)-7-morpholinopyrazolo[1,5-a]pyrimidin-2-yl)-piperidin-1-yl)-N-hydroxy-5-methylquinazoline-2-carboximidamide] | 631 | 4.6 |  |
| CCOc1nc(N2CCCCC2c2cc3nc(N4CCC4)cc(N4CCOCC4)n3n2)c2c(C)cccc2n1 (centres unmarked) [P31, 4-(5-(azetidin-1-yl)-2-(1-(2-ethoxy-5-methylquinazolin-4-yl)piperidin-2-yl)pyrazolo[1,5-a]pyrimidin-7-yl)morpholine] | 158 | 4.8 |  |
| Cc1cccc2ncnc(N3CCCC[C@@H]3c3cc4nc(N5CCC5)cc(N5CCOCC5)n4n3)c12 [P18, (R)-4-(5-(azetidin-1-yl)-2-(1-(5-methylquinazolin-4-yl)piperidin-2-yl)-pyrazolo[1,5-a]pyrimidin-7-yl)morpholine] | > 1000 | <4.3 |  |
| CS(=O)(=O)Nc1nc(N2CCCC[C@H]2c2cc3nc(N4CCC4)cc(N4CCOCC4)n3n2)c2cc(Cl)ccc2n1 [P33, (S)—N-(4-(2-(5-(azetidin-1-yl)-7-morpholinopyrazolo[1,5-a]-pyrimidin-2-yl)piperidin-1-yl)-6-chloroquinazolin-2-yl)methanesulfonamide] |  | 4.2 | 7.88 |
| Cc1c(C2CC2)nc2cc(C3CCCCN3c3ncnc4cccc(C)c34)nn2c1N1CCOCC1 (centres unmarked) [P47, 4-(5-cyclopropyl-6-methyl-2-(1-(5-methylquinazolin-4-yl)piperidin-2-yl)pyrazolo[1,5-a]pyrimidin-7-yl)morpholine] | 501 | 4.6 |  |
| Cc1cccc2nc(-c3cnoc3)nc(N3CCCCC3c3cc4nc(N5CCC5)cc(N5CCOCC5)n4n3)c12 (centres unmarked) [P72, 4-(5-(azetidin-1-yl)-2-(1-(2-(isoxazol-4-yl)-5-methylquinazolin-4-yl)-piperidin-2-yl)pyrazolo[1,5-a]pyrimidin-7-yl)morpholine] | 25.1 | 4.5 |  |
| Cc1cccc2nc(O)nc(N3CCCCC3c3cc4nc(N5CCC5)cc(N5CCOCC5)n4n3)c12 (centres unmarked) [P45, 4-(2-(5-(azetidin-1-yl)-7-morpholinopyrazolo[1,5-a]pyrimidin-2-yl)-piperidin-1-yl)-5-methylquinazolin-2-ol] | 200 | 4.2 |  |
| CNC(=O)c1nc(N2CCCCC2c2cc3nc(N4CCC4)cc(N4CCOCC4)n3n2)c2c(C)cccc2n1 (centres unmarked) [P70, 4-(2-(5-(azetidin-1-yl)-7-morpholinopyrazolo[1,5-a]pyrimidin-2-yl)-piperidin-1-yl)-N,5-dimethylquinazoline-2-carboxamide] | 631 | 4.3 |  |
| Cc1ccc2nc(C)nc(N3CCCC[C@H]3c3cc4nc(N5CC(O)C5)c(C)cn4n3)c2c1 [P43, (S)-1-(2-(1-(2,6-dimethylquinazolin-4-yl)piperidin-2-yl)-6-methyl-pyrazolo[1,5-a]pyrimidin-5-yl)azetidin-3-ol] | 15800 | 4.2 |  |
| Cc1ccc2ncnc(N3CCCCC3c3cc4nc(N5CC(N)C5)c(C)cn4n3)c2c1 (centres unmarked) [P13, 1-(6-methyl-2-(1-(6-methylquinazolin-4-yl)piperidin-2-yl)pyrazolo-[1,5-a]pyrimidin-5-yl)azetidin-3-amine] | 398 | 4.3 |  |
| CS(=O)(=O)Nc1nc(N2CCCC[C@@H]2c2cc3nc(N4CCC4)cc(N4CCOCC4)n3n2)c2cc(Cl)ccc2n1 [P34, (R)—N-(4-(2-(5-(azetidin-1-yl)-7-morpholinopyrazolo[1,5-a]-pyrimidin-2-yl)piperidin-1-yl)-6-chloroquinazolin-2-yl)methanesulfonamide] | 631 | 4.3 |  |
| CS(=O)(=O)Nc1nc(N2CCCC[C@H]2c2cc3nc(N4CCC4)cc(N4CCOCC4)n3n2)c2cc(Cl)ccc2n1 (stereo in doubt) [P32, N-(4-(2-(5-(azetidin-1-yl)-7-morpholinopyrazolo[1,5-a]pyrimidin-2-yl)piperidin-1-yl)-6-chloroquinazolin-2-yl)methanesulfonamide] |  | <4 | 7.3 |
| Cc1cn2nc(C3CCCCN3c3nc(NS(C)(=O)=O)nc4cccc(C)c34)cc2nc1N1CC(O)C1 (centres unmarked) [P41, N-(4-(2-(5-(3-hydroxyazetidin-1-yl)-6-methylpyrazolo[1,5-a]-pyrimidin-2-yl)piperidin-1-yl)-5-methylquinazolin-2-yl)methanesulfonamide] | 79.4 | <4 |  |
| Clc1ccc2ncnc(N3CCCC[C@H]3c3cc4nc(N5CCC5)cc(N5CCOCC5)n4n3)c2c1 [P2, (S)-4-(5-(azetidin-1-yl)-2-(1-(6-chloroquinazolin-4-yl)piperidin-2-yl)-pyrazolo[1,5-a]pyrimidin-7-yl)morpholine] | 316 | 4.4 |  |
